These are literature values, as cited in patent publication US20150239832A1 (Neuro Pro Therapeutics, Inc., priority 2012, published 2015).

Structures are written as SMILES.

The subject of data set [1] is rat models of anxiety. The settings on record: Krystal et al., PLoS ONE 2012.
Data set [2] concerns patients with medically intractable seizures. The settings on record: intravenously administered, intraoperative.
Data set [3] relates to rats. The settings on record: whole animal studies in rats.
For data set [4], the system named is NKCC1 over KCC2.
The subject of data set [5] is primate cortex.

Consider `NS(=O)(=O)c1cc(C(=O)O)c(NCc2ccco2)cc1Cl` [furosemide], for which the “effect on conditioned anxiety” value in data set [1] is listed as “significantly reduce conditioned anxiety”. Further, in data set [2], the “effect on interictal spiking and stimulation-evoked afterdischarges of the neocortex” value is “blocked spontaneously occurring interictal spiking and stimulation-evoked afterdischarges”.

Consider `CCCCNc1cc(C(=O)O)cc(S(N)(=O)=O)c1Oc1ccccc1` [bumetanide], for which, in data set [1], the “effect on conditioned anxiety” value was “significantly reduce conditioned anxiety”. The “effect on kainic acid status” value in data set [3] is “more potent than furosemide”. Moreover, in data set [4], the “affinity for NKCC1 relative to KCC2” value is listed as “significantly greater affinity for NKCC1 over KCC2”. Further, the “potency in blocking epileptiform activity (focal bicuculline or 4-AP) and stimulation-evoked afterdischarges” value in data set [5] was “more potent than furosemide”.
